# Legend:
# Epstein-Barr virus = settings: infections caused by Epstein-Barr virus; cited from earlier work
# [1] = human body, cited from earlier work
# [2] = test system: herpes simplex virus type 1; settings: infections caused by herpes simplex virus type 1; cited from earlier work
# varicella zoster virus = settings: infections caused by varicella zoster virus; cited from earlier work
# replication of viruses = settings: BVU as such; cited from earlier work
# [3] = Toxicity / deaths of mice in Example 1; type: in vivo, male BDF1 mice
# [4] = cited from earlier work
# adenocarcinoma 755 = assay: Antitumor activity against subcutaneous adenocarcinoma 755 in BDF1 mice, oral FU or FU + BVDU (Example 1); settings: for T/C (percent tumor weight with regard to control) / tumor weight, Mean ± SD: p.o. daily, 5 days, day 12
# Procedure: Groups of 6 male BDF1 -mice having a body weight of 21 to 23 g, were subcutaneously inoculated on day 0 with tumor cells of the type adenocarcinoma 755 at a dose of 5=10^5 cells per mouse. Thereupon, the compound FU (or a combination of FU and BVDU) was perorally administered in a predetermined daily dose during 5 consecutive days, starting 24 hours after the inoculation with tumor cells. On day 12, the tumor weight was determined and compared with the tumor weight in a non-treated control group.
# [5] = FU 30 mg/kg, p.o. daily, 5 days
structure (smiles),measurement,setting,value
"O=c1[nH]c(=O)n([C@H]2C[C@H](O)[C@@H](CO)O2)cc1/C=C/Br [BVDU, (E)-5-(2-bromovinyl)-2'-deoxyuridine]",antiviral activity,Epstein-Barr virus,active
same,conversion to BVU,[1],rapidly converted
same,antiviral activity,[2],active
same,antiviral activity,varicella zoster virus,active
"O=c1[nH]cc(/C=C/Br)c(=O)[nH]1 [BVU, 5-(2-bromovinyl)uracil]",presence in the blood stream,[1]; after conversion from BVDU,remains present in the blood stream for a relatively long period
same,activity against replication of viruses,replication of viruses,inactive
"O=c1[nH]c(=O)n(C2CCCO2)cc1F (stereo not shown) [FT, N1-(2'-tetrahydrofuryl)-5-fluorouracil]",conversion to FU,[1],converted slowly to FU
"O=c1[nH]cc(F)c(=O)[nH]1 [FU, 5-fluorouracil]",died (animals of group),[3]; [5],3/6
same,toxicity (in words),[3]; [5],Toxic
same,LD50,"[3]; mouse, in vivo, po, FU used alone, from the Table (doses in mg/kg), read-out: LD50 (50% lethal dose)",30 mg/kg
same,degradation in the liver,[4],degraded rather rapidly
same,T/C (percent tumor weight with regard to control),adenocarcinoma 755; FU 5 mg/kg,122%
same,"tumor weight, Mean ± SD",adenocarcinoma 755; FU 5 mg/kg,2523 ± 389 mg
same,T/C (percent tumor weight with regard to control),adenocarcinoma 755; FU 10 mg/kg,85%
same,"tumor weight, Mean ± SD",adenocarcinoma 755; FU 10 mg/kg,1759 ± 726 mg
same,T/C (percent tumor weight with regard to control),adenocarcinoma 755; FU 20 mg/kg,32%
same,"tumor weight, Mean ± SD",adenocarcinoma 755; FU 20 mg/kg,675 ± 355 mg
same,therapeutic index (ratio of LD50 to ED50),adenocarcinoma 755; FU used alone,2
same,ED50,"adenocarcinoma 755; Mus musculus, po, 288 h, read-out: ED50 (dose causing a 50% reduction of T/C)",15 mg/kg
